In US20030113352A1, “Neutralization of stratum corneum to treat hyperkeratotic skin lesions” (The Regents of the University of California, priority 2001, published 2003):

Columns and labels:
murine skin [1] = assay: Desmosome density and desmoglein-1 staining in lower stratum corneum; type: in vivo, mouse; conditions: for density of desmosomes in the lower stratum corneum and at the stratum corneum-stratum granulosum interface: inhibitor-treated vs vehicle sites
From the text: (§1) Ultrastructural methods: Freshly obtained biopsies from mouse skin were fixed directly in modified Karnovsky's fixative, postfixed with reduced osmium tetroxide (OSO4) and then imbedded in an Epon-epoxy mixture. For visualization of lipid-enriched, lamellar bilayer structures, some samples were post fixed in ruthenium tetroxide (RuO4). Sections were cut on a Reichert Ultracut E microtome, counterstained with uranyl acetate and lead citrate, and viewed in a Zeiss 10 CR electron microscope, operated at 60 kV.
Immunofluorescence Staining: Hairless mouse skin was excised with a 6 mm punch biopsy, and the subcutaneous fat was removed. Tissue sections were incubated for 1 hour in blocking buffer (1% bovine serum albumin, 0.1% cold water fish gelatin in phosphate buffered saline (PBS)), and were then incubated for 1 hour further at room temperature with 1:500 dilution of polyclonal rabbit anti-mouse desmoglein 1 antibody (gift of Dr. John Stanley, University of Pennsylvania) diluted in blocking buffer. The tissue was then washed with blocking buffer and incubated one hour at room temperature with fluoroscein, isothiocyanate-conjugated, goat anti-rabbit IgG antibody (DAKO, Carpinteria, Calif., USA), diluted in blocking buffer. Either preincubation of DSG 1 antibody with DSG 1-recombinant protein (gift of Dr. Masayuki Amagai, Keio University, Tokyo, Japan), or omission of the DSG 1 primary antibody eliminated specific staining.

hairless mice [2] = assay: Permeability barrier function by transepidermal water loss (TEWL); type: in vivo, hairless mice (Skh1/Hr)
Procedure: (§2) The mice were anesthetized with chloral hydrate (Morton Grove Pharmaceuticals, Morton Grove, Ill., USA). After 3 hours immersion at 37° C., the mice were removed, and the remaining buffer was gently blotted off. After 15 minutes, barrier function was determined by measurement of transepidermal water loss(TEWL) with an electrolytic water analyzer (MEECO®, Warrington, Pa.). Surface pH was measured with a flat, glass surface electrode from Mettler-Toledo (Giessen, Germany), attached to a pH meter (Skin pH Meter PH 900, Courage& Khazaka, Cologne, Germany). Individually tested sites were covered with Hilltop Chambers (HtC, nominal volume 200 mL), which were reapplied following each indvidual measurement.

hairless mice [3] = assay: Stratum corneum integrity: TEWL after sequential tape strippings; type: in vivo, hairless mice (Skh1/Hr)
Procedure: After 15 minutes, barrier function was determined by measurement of transepidermal water loss(TEWL) with an electrolytic water analyzer (MEECO®, Warrington, Pa.). […] Individually tested sites were covered with Hilltop Chambers (HtC, nominal volume 200 mL), which were reapplied following each indvidual measurement.
(§3) The stratum corneum was removed by several strippings with adhesive tape (Tesatape, Beiersdorf, Germany) inducing an increase in TEWL levels above baseline (from 2-5 to approximately 10-15 g/m^2/h). Two sites were prepared on each animal, and TEWL and surface pH were measured at 0, 2, 5 and 24 hrs following the stripping and the applications of inhibitors.

hairless mice [4] = assay: Stratum corneum cohesion: protein removed per D-Squame stripping; type: in vivo, hairless mice (Skh1/Hr)
Procedure: Before stripping the stratum corneum, the skin surface was cleaned with a single ethanol wipe. D-Squame tapes then were placed sequentially to the test areas for about 3 sec each, removed with forceps, and stored in glass scintillation vials at 5° C.
The amount of protein removed per D-Squame was measured, by a modification of the method of Dreher, F., et al., Acta Derm. […] The protein content per stripping was determined with the Bio-Rad protein assay kit. […] Each tape was incubated with 1 M NaOH for 1 hour at 37° C. in an incubator shaker at 80 rpm, and neutralized thereafter with 1 mL of 1 M HCl in the scintillation vials. Subsequently, 0.2 mL of this solution was incubated in 0.6 ml distilled water plus 0.2 mL of the Bio-Rad protein dye for 5 minutes in borosililate tubes. […] An empty D-Squame tape, as well as distilled water incubated with Bio-Rad dye, served as negative controls. The amount of calculated protein was then normalized to skin surface area (μg/cm^2).

murine skin [5] = conditions: 4 mg/mL topical, shown previously; cited from earlier work
hairless mice [6] = assay: Skin surface pH after topical treatment or buffer exposure; type: in vivo, hairless mice (Skh1/Hr)
Procedure: as §2

NHE1 antiporter = biological target: T1, NHE1 antiporter (Homo sapiens, UniProt P19634); assay: Intracellular pH (BCECF) and recovery from acid load in cultured human keratinocytes; type: cell-based
T1 construct: endogenous in cells; host or cells: cultured human keratinocytes (CHK)
T1 sequence (P19634 whole entry): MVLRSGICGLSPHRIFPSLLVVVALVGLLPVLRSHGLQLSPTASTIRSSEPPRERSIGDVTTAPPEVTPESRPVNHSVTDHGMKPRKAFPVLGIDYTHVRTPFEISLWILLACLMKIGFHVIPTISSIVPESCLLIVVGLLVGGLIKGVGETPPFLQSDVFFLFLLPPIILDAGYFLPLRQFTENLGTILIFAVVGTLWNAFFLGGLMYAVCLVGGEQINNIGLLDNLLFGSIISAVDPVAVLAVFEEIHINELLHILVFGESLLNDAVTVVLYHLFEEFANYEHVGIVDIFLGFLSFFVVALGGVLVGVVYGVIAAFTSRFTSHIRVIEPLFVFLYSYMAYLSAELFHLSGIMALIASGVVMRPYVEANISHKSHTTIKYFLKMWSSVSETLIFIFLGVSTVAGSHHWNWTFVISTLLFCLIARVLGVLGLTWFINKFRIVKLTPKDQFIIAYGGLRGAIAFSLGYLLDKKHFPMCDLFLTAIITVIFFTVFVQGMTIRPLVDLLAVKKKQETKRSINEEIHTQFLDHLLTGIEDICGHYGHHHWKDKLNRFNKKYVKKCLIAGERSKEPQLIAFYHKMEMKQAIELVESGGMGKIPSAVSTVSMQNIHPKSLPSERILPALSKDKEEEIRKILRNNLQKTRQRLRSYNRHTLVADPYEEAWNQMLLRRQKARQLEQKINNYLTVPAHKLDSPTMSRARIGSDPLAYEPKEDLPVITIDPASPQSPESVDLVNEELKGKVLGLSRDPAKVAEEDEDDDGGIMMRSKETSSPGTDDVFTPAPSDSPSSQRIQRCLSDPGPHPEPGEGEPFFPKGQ
Procedure: Assessment of Intracellular pH: Keratinocytes were plated on glass coverslips and grown in Cascade 154 medium containing 0.07 mM Ca^2+. The coverslips were incubated in 145 μM BCECF-AM ester at room temperature for 5 minutes, then rinsed for 30 minutes in buffer containing either 28 mM HEPES, 136 mM NaCl, 5 mM KCl, 0.07 mM CaCl2 and 10 mM glucose, pH 7.4 or Ringer solution (136 mM NaCl, 5 mM KCl, 0.03 mM Ca2+, 28 mM TES, 14 mM Na HCO3, NaOH to adjust the pH to 7.4, and 10 mM glucose (pH 7.4, 330 mOsm)). BCECF-AM-ester is membrane permeable; once inside cells it is de esterified by endogenous […], trapping flourescently-active, acidic BCECF inside the cells. The BCECF-loaded cells were placed in a superfusion chamber mounted on a inverted microscope (Nikon). The keratinocytes were superfused with one of the two solutions, and baseline intracellular pH was monitored constantly using a ratiometric method (Paradiio et al (1987) Am J. Physiol. 253:C30-6). […] The resultant fluorescence (at 530 nm) from each stimulating wavelength was measured with a CCD camera (Hamamatsu) digitally ratioed, and stored using a software program (Fluor, Universal Imaging Co., West Chester, Pa.). Whereas fluorescence emission at 440 nm excitation remains constant, indicative of dye concentration, emission from 490 nm varies proportionally with changes of intracellular pH. […]

hairless mice [7] = assay: Barrier recovery (TEWL) after tape-stripping; conditions: for barrier recovery after tape-stripping: NHE1 inhibitors, general statement
Procedure: Permeability Barrier Studies: Normal hairless mice were treated topically twice a daily for three days with BPB (4 mg/mL) or MJ33 (4 mg/mL) both in propylene glycol:ethanol (7:3 v/v) vehicle, or the vehicle alone on an area of 5-6 cm on the backs and flanks as described previously (Mao-Qiang, M., et al., J. Lipid Res. 36:1926-35 (1995)). […] The acidification experiments were performed with 10 mM HEPES-buffer, adjusted to either pH 5.5 or pH 7.4 as follows: One flank of anesthetized mice was immersed on a mesh netting, as described previously (Lee, S. H., et al., J. Clin. Invest. 89:530-8 (1992)). The mice were anesthetized with chloral hydrate (Morton Grove Pharmaceuticals, Morton Grove, Ill., USA). After 3 hours immersion at 37° C., the mice were removed, and the remaining buffer was gently blotted off. After 15 minutes, barrier function was determined by measurement of transepidermal water loss(TEWL) with an electrolytic water analyzer (MEECO®, Warrington, Pa.). […] Individually tested sites were covered with Hilltop Chambers (HtC, nominal volume 200 mL), which were reapplied following each indvidual measurement.
as §3
Hairless mice were tape stripped to TEWL of 7-9 g/m^2/h. […] Control areas were covered with Hilltop Chambers containing 10 mM HEPES buffer adjusted to pH 7.4 or pH 5.5 as appropriate. TEWL was measured at 0, 2, 5, and 24 hours post tape-strip. The results are reported as percent barrier recovery from the initial induced defect.

mouse skin = assay: Electron microscopy of lamellar bodies and extracellular lipid processing; type: in vivo
From the text: as §1

murine skin [8] = assay: Stratum corneum pH after tape-stripping with buffers and NHE1 inhibitors; type: in vivo, mouse
Procedure: The acidification experiments were performed with 10 mM HEPES-buffer, adjusted to either pH 5.5 or pH 7.4 as follows: One flank of anesthetized mice was immersed on a mesh netting, as described previously (Lee, S. H., et al., J. Clin. Invest. 89:530-8 (1992)). […] After 3 hours immersion at 37° C., the mice were removed, and the remaining buffer was gently blotted off. After 15 minutes, barrier function was determined by measurement of transepidermal water loss(TEWL) with an electrolytic water analyzer (MEECO®, Warrington, Pa.). Surface pH was measured with a flat, glass surface electrode from Mettler-Toledo (Giessen, Germany), attached to a pH meter (Skin pH Meter PH 900, Courage& Khazaka, Cologne, Germany). Individually tested sites were covered with Hilltop Chambers (HtC, nominal volume 200 mL), which were reapplied following each indvidual measurement.
as §3

[9] = five hours post tape-strip, in pH 7.4 buffer, buffer alone 38%
[10] = two hours post tape-strip, in pH 7.4 buffer, buffer alone 21%
[11] = fatty acid co-applied with BPB, three days
[12] = fifth strip, fatty acid co-applied with BPB

O=C(CBr)c1ccc(Br)cc1 [BPB, bromphenacyl bromide]
density of desmosomes in the lower stratum corneum and at the stratum corneum-stratum granulosum interface (murine skin [1]): dramatic reduction | density of DSG1 positive clusters (murine skin [1]; laser confocal microscopy, lower stratum corneum): decline dramatically | TEWL before buffer exposure (hairless mice [2]; BPB three days, before neutral buffer): about 10 g/m^2/h | barrier function (hairless mice [2]; BPB three days, then acidic buffer three hours): remained unchanged | TEWL (hairless mice [2]; BPB three days, then neutral buffer three hours): about 18 g/m^2/h | TEWL (hairless mice [2]; day three of treatment): ~11 g/m^2/h | TEWL (hairless mice [2]; day two of treatment): ~6 g/m^2/h | TEWL after tape strippings (hairless mice [3]; BPB treated sites then acidic buffer, three sequential strippings): less than 30 g/m^2/h | TEWL after tape strippings (hairless mice [3]; BPB treated sites then neutral buffer, three sequential strippings): more than 60 g/m^2/h | TEWL after tape strips (hairless mice [3]; fifth strip, BPB alone (Example 5)): 80-100 g/m^2/ h | TEWL after tape stripping (hairless mice [3]; fifth strip, after three days of treatment (Example 1)): ~90 g/m^2/h | TEWL after tape stripping (hairless mice [3]; second strip, after three days of treatment): ~20 g/m^2/h | protein removed (hairless mice [4]; after five strips (Example 1)): 85-90 μg/cm^2 | protein removed per D-Squame stripping (hairless mice [4]; first strip, after three days of treatment): about 20 μg/cm^2 | protein lost (hairless mice [4]; five sequential tape-strippings, BPB alone (Example 5)): about 125 μg protein/cm^2 | toxicity of the doses employed (murine skin [5]): non-toxic | pH of the stratum corneum (hairless mice [6]; BPB alone, comparison with LA co-application): 6.28+/−0.1 | pH of the stratum corneum (hairless mice [6]; BPB alone, comparison with PA co-application): 5.92+/−0.05 | pH of the stratum corneum (hairless mice [6]; BPB alone, comparison with SA co-application): 6.17+/−0.08 | surface pH of BPB treated sites before buffer exposure (hairless mice [6]; BPB three days, before buffer): ~5.95 pH | surface pH (hairless mice [6]; BPB three days, then neutral buffer (pH 7.4) three hours): ~6.41 pH | pH of the skin (hairless mice [6]; after one day, 4 mg/mL topical twice daily): ~6.0 pH | average pH of treated sites (hairless mice [6]; day 3, 4 mg/mL topical twice daily): ~6.4 pH

CS(=O)(=O)c1cc(C(=O)NC(=N)N)ccc1N1CCCCC1 [HOE694, 3-methylsulfonyl-4-piperidino-benzoylguanidinemethanesulfonate]
intracellular pH (NHE1 antiporter; 1.5 μM for 16 hours, from pH 7.05): 6.90 pH | percent barrier recovery (TEWL rate less than initial induced rate) (hairless mice [7]; 2 hours post tape-strip, in pH 5.5 buffer, buffer alone 28%): 25% | percent barrier recovery (TEWL rate less than initial induced rate) (hairless mice [7]; 5 hours post tape-strip, in pH 5.5 buffer): 38% | percent barrier recovery (TEWL rate less than initial induced rate) (hairless mice [7]; 24 hours post tape-strip, in pH 5.5 buffer): 75% | percent barrier recovery (TEWL rate less than initial induced rate) (hairless mice [7]; 24 hours post tape-strip, in pH 7.4 buffer, buffer alone 75%): about 45% | barrier recovery after tape-stripping (hairless mice [7]): delayed barrier recovery | percent barrier recovery (TEWL rate less than initial induced rate) (hairless mice [7]; [9]): 23% | percent barrier recovery (TEWL rate less than initial induced rate) (hairless mice [7]; [10]): about 12% | lamellar body formation and extracellular processing of secreted lipids (mouse skin; in pH 5.5 buffer): appeared normal | extracellular processing of secreted lipids (mouse skin; in pH 7.4 buffer): defective | lamellar body formation and secretion (mouse skin; in pH 7.4 buffer): undisturbed | stratum corneum pH relative to initial post-tape-strip value (murine skin [8]; 2 hours post-tape-strip, pH 5.5 HEPES buffer): more than 0.1 pH units | stratum corneum pH relative to initial post-tape-strip value (murine skin [8]; 5 hours post-tape-strip, pH 5.5 HEPES buffer): more than 0.05 pH units | stratum corneum pH relative to initial post-tape-strip value (murine skin [8]; five hours post-tape-strip, pH 7.4 buffer): persisted and even increased | initial post-tape-strip pH value (murine skin [8]; in pH 5.5 buffer, vs pH 5.5 buffer alone): increased significantly | stratum corneum pH above that of skin exposed to pH 7.4 buffer alone (murine skin [8]; two hours post-tape-strip, in pH 7.4 buffer): ~0.05 pH units | stratum corneum pH increase over initial post-tape-strip value (murine skin [8]; two hours post-tape-strip, pH 7.4 buffer): > 0.1 pH units

CCCCCCCCCCCCCCCCOCC(COCC(F)(F)F)OP(=O)(O)OC (centres unmarked) [MJ33, 1-Hexadecyl-3-triflouroethylglycero-sn-2-phosphomethanol]
density of desmosomes in the lower stratum corneum and at the stratum corneum-stratum granulosum interface (murine skin [1]): dramatic reduction | fold increase in TEWL rates (hairless mice [2]; by day three, vs vehicle): 2-3 fold | TEWL rates (hairless mice [2]; day three, repeated applications, vehicle 2.97): 5.19+/−.81 | TEWL after tape strippings (hairless mice [3]; day 3, after three consecutive tape strippings (Example 1)): ~75 g/m^2/hr | TEWL after tape strips (hairless mice [3]; three sequential tape-strippings, MJ33 alone (Example 5)): ~75 g/m^2/h | protein lost (hairless mice [4]; day 3, after three consecutive tape-strippings (Example 1)): over 50 μg protein/cm^2 | protein lost (hairless mice [4]; three sequential strippings, MJ33 alone (Example 5)): about 50 μg protein/cm^2 | toxicity of the doses employed (murine skin [5]): non-toxic | stratum corneum surface pH (hairless mice [6]; MJ33 4 mg/mL vs vehicle alone (5.60)): 5.87+/−0.06

N=C(N)NC(=O)c1nc(Cl)c(N)nc1N [amiloride, N-Amido-3,5-diamino-6-chloropyrazinecarboxamide]
effect after wash out period (NHE1 antiporter; FIG. 1 (D), recovery from acid load after wash out): non-permanent, non-toxic effect | barrier recovery after tape-stripping (hairless mice [7]): delayed barrier recovery | percent barrier recovery (TEWL rate less than initial induced rate) (hairless mice [7]; [9]): about 25% | percent barrier recovery (TEWL rate less than initial induced rate) (hairless mice [7]; [10]): about 12%

CCCCC/C=C\C/C=C\CCCCCCCC(=O)O [linoleic acid]
pH of the stratum corneum (hairless mice [6]; [11]): 5.77+/−0.10

CCCCCCCCCCCCCCCC(=O)O [palmitic acid]
TEWL after tape strips (hairless mice [3]; [12]): 55-60 g/m^2/h | TEWL after tape strips (hairless mice [3]; three sequential tape-strippings, fatty acid co-applied with MJ33): 30-35 g/m^2/h | protein lost (hairless mice [4]; [12]): about 40 μg protein/cm^2 | protein lost (hairless mice [4]; three strippings, fatty acid co-applied with MJ33): about 30 μg/cm^2 | pH of the stratum corneum (hairless mice [6]; [11]): 5.40+/−0.14

CCCCCCCCCCCCCCCCCC(=O)O [stearic acid]
TEWL after tape strips (hairless mice [3]; [12]): about 25 g/m^2/h | protein lost (hairless mice [4]; [12]): about 25 μg protein/cm^2 | pH of the stratum corneum (hairless mice [6]; [11]): 5.73+/−0.09
